Assay results taken from ChEMBL document CHEMBL1201862, “PubChem BioAssay data set” (2004).
Calls of active or inactive are those of the source.

How the values were obtained:
[1] = target: Dual specificity protein phosphatase 3 (Homo sapiens, UniProt P51452); experiment: SAR VHR1 Fluorescent Assay for In Vitro dose response studies Set 3. [Related pubchem assays (depositor defined):AID1654, AID1661, AID1878]; format: functional
[2] = blockers of HIV-1 ZM109 envelope-driven cell-cell fusion – HeLa effector, CEM target cells, luciferase, cherry-pick, dose response (AID 652058); format: functional, cell-based;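 note: luciferase signal from HIV-1 Env mediated cell-cell fusion of effector and target cells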
[3] = off-target signal loss in HeLa-CEM21 co-culture – HeLa F-luc CTL cells, cherry-picked, counter-screen for HIV-1 Env fusion inhibitor project, dose response (AID 652040); format: functional, cell-based;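 note: potency for signal decrease marking cytotoxic or nonspecific inhibition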
[4] = HIV-1 AD8 envelope cell-cell fusion blockers – cherry-pick, dose response (AID 652062); format: functional, cell-based;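 note: luciferase signal from cell-cell fusion driven by HIV-1 clade B AD8 Env; potency is for inhibitors of fusion seen as a drop in luminescence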
[5] = MIN6 cell viability loss – mouse insulinoma, cytotoxicity control, dose response (AID 2122); format: functional;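 note: confirmatory high-throughput counterscreen run to flag cytotoxic compounds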
[6] = blockers of HIV-1 envelope-mediated cell-cell fusion – cherry-pick, dose response (AID 652057); format: functional, cell-based
[7] = decrease of insulin promoter-GFP reporter – imaging, high-content screening, mouse beta cells (AID 1628); format: functional; details: MIN6
[8] = target: T1, Short transient receptor potential channel 4 (Mus musculus, UniProt Q9QUQ5); experiment: block of DAMGO-driven TRPC4 calcium entry – cell-based, HEK293 TRPC4/mu-opioid, Fluo-4 calcium, dose response (AID 434942); format: functional;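 note: potency of inhibitors blocking the TRPC4 calcium response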
T1 sequence (Q9QUQ5 whole entry): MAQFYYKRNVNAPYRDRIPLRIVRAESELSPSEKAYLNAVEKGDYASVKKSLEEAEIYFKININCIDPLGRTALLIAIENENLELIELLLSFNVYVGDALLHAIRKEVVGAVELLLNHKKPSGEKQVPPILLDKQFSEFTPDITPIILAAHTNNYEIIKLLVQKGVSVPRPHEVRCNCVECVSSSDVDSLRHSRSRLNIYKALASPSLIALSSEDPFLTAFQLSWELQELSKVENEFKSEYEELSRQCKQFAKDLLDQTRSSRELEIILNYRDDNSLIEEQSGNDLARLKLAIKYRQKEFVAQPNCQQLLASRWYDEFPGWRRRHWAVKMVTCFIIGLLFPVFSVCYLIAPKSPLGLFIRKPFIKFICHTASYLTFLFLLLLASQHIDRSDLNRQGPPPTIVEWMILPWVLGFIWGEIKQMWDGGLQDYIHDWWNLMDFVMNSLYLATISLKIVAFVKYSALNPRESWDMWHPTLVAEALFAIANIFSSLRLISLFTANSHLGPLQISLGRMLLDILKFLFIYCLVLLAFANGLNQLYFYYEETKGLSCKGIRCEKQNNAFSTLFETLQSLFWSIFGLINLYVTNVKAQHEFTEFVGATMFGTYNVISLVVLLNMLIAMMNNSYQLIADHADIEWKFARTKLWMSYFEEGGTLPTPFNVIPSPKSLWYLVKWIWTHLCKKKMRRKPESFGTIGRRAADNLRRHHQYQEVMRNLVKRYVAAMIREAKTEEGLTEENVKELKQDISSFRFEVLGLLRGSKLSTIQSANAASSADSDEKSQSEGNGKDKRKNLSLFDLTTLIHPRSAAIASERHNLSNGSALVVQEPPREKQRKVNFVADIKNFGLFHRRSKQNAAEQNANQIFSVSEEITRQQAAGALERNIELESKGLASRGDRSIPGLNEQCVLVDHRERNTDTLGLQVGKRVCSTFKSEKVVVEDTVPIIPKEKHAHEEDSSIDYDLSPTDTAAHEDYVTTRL

[9] = target: Cyclin-dependent kinase 5/CDK5 activator 1 (Homo sapiens, UniProt Q00535); experiment: blockade of human CDK5 activity – biochemical, cherry-picked samples, set 2, dose response (AID 504545)
[10] = viability loss in CEM21 cells – cell-based, CellTiter-Glo luminescence, cherry-picked, cytotoxicity control for viral fusion inhibitor project, dose response (AID 652042); format: functional;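 note: potency for signal decrease meaning cytotoxicity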
[11] = target: UDP-galactopyranose mutase (Mycobacterium tuberculosis, UniProt P9WIQ1); experiment: Inhibitors of Mycobacterium tuberculosis UDP-galactopyranose mutase (UGM) enzyme Measured in Biochemical System Using Plate Reader - 2105-02_Inhibitor_Dose_CherryPick_Activity. [Related pubchem assays (depositor defined):AID504439]
UDP-galactopyranose mutase, sequence (P9WIQ1 whole entry, the tested form may be a part): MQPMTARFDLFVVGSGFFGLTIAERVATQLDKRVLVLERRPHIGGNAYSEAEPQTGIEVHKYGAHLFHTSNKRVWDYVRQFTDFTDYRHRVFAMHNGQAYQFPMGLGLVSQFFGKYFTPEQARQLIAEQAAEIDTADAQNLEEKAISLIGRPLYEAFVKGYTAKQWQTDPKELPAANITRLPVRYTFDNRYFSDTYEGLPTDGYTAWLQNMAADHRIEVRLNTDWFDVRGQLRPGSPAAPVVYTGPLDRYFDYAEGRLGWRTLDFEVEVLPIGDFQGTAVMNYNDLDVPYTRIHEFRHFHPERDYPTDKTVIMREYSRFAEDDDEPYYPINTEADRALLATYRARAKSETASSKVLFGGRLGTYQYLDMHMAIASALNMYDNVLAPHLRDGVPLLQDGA

[12] = target: T2, Nucleotide-binding oligomerization domain-containing protein 1 (Homo sapiens, UniProt Q9Y239); experiment: blockers of NOD1 pathway activity – revised, SAR follow-up (AID 2333); format: functional
T2 sequence (Q9Y239 whole entry): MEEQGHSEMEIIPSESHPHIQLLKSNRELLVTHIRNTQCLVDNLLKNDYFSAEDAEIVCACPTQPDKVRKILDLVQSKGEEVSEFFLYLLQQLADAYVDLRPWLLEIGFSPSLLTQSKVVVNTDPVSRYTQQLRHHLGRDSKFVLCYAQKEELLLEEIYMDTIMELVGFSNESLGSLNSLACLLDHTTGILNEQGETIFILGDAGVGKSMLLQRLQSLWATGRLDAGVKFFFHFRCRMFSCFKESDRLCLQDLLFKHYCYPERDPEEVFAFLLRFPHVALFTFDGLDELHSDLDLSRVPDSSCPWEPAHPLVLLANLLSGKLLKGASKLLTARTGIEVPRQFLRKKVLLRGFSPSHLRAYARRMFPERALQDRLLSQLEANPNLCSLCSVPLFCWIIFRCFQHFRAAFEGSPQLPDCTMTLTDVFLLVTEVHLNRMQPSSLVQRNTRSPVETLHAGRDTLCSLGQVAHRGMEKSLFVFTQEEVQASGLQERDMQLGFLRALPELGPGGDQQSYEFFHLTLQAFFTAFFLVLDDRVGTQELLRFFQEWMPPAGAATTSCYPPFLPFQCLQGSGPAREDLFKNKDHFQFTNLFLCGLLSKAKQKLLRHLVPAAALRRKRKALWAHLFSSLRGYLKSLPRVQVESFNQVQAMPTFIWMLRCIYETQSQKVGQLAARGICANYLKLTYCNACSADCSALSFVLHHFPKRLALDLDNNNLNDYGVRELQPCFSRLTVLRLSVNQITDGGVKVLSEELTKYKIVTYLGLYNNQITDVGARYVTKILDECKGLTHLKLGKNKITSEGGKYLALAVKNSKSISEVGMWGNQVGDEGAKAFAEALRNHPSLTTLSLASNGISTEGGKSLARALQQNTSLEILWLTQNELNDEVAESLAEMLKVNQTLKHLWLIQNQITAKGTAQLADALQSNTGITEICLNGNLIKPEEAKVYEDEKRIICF

[13] = target: T3, Nucleotide-binding oligomerization domain-containing protein 2 (Homo sapiens, UniProt Q9HC29); experiment: PubChem AID 2334; format: functional
T3 sequence (Q9HC29 whole entry, the tested form may be a part): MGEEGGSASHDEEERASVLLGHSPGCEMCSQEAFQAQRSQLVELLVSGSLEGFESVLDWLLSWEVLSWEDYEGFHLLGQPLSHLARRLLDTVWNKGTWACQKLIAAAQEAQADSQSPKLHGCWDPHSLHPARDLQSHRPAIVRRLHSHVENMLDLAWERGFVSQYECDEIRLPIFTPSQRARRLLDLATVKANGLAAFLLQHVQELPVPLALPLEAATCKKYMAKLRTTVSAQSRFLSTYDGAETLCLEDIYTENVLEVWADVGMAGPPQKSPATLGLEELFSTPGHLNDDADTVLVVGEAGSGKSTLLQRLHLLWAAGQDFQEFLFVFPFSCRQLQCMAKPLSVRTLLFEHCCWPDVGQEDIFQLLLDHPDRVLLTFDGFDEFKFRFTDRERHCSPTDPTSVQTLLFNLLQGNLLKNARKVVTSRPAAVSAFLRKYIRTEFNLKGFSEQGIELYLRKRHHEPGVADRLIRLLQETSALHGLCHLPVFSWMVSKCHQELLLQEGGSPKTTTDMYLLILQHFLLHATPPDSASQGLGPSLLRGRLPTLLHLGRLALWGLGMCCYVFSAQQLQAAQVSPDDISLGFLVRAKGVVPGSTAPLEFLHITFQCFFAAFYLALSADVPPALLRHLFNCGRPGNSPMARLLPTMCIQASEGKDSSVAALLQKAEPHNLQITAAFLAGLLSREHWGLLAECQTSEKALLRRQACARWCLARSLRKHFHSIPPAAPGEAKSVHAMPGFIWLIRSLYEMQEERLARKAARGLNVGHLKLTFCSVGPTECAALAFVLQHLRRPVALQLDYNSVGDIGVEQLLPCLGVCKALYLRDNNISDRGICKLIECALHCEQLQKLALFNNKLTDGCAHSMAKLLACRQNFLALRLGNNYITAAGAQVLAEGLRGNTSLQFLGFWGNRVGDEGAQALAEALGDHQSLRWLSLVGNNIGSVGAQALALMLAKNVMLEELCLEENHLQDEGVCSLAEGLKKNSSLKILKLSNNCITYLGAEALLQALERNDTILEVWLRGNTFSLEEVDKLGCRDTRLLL

Tumor necrosis factor [14] = target: T4, Tumor necrosis factor (Homo sapiens, UniProt P01375); experiment: analog potency on TNFa NF-kB signaling – cell-based, revised, SAR follow-up (AID 2337); format: functional
T4 sequence (P01375 whole entry): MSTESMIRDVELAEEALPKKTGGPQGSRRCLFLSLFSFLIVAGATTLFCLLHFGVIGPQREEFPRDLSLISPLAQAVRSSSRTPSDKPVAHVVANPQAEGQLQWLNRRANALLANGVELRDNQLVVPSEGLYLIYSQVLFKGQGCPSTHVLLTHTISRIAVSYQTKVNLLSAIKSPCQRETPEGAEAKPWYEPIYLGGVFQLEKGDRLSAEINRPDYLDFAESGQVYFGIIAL

HEK293 [15] = experiment: cells; details: Homo sapiens
Fatty acid synthase [16] = target: T5, Fatty acid synthase (Homo sapiens, UniProt P49327); experiment: inhibition of human FAS-TE enzyme activity – biochemical, endpoint fluorescence intensity, uHTS hits, dose response (AID 624327); format: functional;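 note: fluorescence from hydrolysis of an O-methyl fluorescein acyl ester substrate by the enzyme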
T5 sequence (P49327 whole entry): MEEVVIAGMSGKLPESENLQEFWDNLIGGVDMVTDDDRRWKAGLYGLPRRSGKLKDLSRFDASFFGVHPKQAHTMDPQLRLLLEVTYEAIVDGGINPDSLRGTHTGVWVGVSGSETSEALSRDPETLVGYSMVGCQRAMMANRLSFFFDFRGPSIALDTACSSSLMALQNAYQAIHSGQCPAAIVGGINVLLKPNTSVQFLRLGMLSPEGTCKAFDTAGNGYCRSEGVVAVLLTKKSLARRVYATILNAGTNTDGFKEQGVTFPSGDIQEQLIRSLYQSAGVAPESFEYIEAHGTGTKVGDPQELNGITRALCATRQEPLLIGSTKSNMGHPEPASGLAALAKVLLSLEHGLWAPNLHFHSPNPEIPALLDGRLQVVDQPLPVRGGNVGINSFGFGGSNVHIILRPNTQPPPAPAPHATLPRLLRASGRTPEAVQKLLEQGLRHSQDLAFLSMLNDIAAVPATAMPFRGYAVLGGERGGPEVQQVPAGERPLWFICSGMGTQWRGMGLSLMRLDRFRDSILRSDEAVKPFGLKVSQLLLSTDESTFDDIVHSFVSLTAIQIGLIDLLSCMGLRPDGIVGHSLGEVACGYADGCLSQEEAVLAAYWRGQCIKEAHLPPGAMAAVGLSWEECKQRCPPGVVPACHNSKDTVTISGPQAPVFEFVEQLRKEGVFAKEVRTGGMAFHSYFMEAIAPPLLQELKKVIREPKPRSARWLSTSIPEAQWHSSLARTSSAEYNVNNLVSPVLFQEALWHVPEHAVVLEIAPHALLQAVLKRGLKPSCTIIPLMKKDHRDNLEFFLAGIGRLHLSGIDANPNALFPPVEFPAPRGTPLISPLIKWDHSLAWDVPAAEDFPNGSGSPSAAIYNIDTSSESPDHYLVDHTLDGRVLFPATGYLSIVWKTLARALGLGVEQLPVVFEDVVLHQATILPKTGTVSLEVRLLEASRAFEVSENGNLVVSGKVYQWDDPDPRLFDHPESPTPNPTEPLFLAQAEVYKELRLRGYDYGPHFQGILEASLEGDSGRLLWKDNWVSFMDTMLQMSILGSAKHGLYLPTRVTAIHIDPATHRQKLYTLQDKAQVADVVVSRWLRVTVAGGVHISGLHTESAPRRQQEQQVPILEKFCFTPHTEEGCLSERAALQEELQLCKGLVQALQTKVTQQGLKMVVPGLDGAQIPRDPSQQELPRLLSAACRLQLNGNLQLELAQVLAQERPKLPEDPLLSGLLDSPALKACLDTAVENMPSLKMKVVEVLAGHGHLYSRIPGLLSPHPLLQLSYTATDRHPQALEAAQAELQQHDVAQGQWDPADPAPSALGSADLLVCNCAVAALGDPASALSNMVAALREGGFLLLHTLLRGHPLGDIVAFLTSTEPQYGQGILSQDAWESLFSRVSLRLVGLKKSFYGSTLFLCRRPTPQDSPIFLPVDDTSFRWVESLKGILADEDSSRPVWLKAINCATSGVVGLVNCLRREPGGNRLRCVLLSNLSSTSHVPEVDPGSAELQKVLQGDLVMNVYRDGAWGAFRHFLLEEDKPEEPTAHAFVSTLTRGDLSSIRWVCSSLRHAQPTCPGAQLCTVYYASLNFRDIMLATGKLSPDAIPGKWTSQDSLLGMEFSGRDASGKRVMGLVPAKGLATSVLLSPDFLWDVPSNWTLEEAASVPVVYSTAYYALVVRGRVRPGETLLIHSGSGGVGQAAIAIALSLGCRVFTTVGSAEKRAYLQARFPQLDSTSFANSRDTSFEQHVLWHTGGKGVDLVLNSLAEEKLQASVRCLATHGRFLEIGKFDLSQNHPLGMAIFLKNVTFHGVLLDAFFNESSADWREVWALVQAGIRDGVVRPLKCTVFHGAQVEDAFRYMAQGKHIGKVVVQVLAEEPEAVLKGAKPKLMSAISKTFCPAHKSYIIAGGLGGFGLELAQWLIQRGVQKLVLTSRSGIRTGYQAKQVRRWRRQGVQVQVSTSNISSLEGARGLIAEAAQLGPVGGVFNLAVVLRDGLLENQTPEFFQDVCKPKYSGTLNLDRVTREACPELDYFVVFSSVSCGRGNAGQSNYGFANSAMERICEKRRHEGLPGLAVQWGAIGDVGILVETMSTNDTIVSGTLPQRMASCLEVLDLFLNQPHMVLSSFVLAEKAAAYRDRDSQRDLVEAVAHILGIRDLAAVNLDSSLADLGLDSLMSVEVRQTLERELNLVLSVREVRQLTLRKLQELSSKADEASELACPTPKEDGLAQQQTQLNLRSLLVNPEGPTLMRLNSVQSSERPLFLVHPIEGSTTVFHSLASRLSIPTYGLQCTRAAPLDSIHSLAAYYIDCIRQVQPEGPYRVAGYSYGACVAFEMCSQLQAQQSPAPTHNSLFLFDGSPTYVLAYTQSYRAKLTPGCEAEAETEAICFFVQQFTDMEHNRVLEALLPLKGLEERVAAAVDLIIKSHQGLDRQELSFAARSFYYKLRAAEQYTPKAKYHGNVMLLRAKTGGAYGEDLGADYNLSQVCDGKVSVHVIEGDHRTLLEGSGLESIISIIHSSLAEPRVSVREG

Tumor necrosis factor [17] = target: T4, Tumor necrosis factor; experiment: analog potency on TNFa NF-kB signaling – cell-based, set 3, SAR follow-up (AID 2801); format: functional
[18] = target: T2, Nucleotide-binding oligomerization domain-containing protein 1; experiment: SAR analysis of compounds that inhibit NOD1 - Set 3. [Related pubchem assays (depositor defined):AID1566, AID1575, AID1578, AID1849, AID1852, AID2333, AID2335, AID2466]; format: functional
HEK293 [19] = experiment: SAR analysis of compounds that are cytotoxic to HEK293 - Set 2. [Related pubchem assays (depositor defined):AID1575, AID1578, AID1849, AID2001, AID2333, AID2334, AID2335, AID2337, AID2800]; format: functional, cell-based; details: Homo sapiens
Fatty acid synthase [20] = target: T5, Fatty acid synthase; experiment: inhibition of human FAS-TE enzyme activity – biochemical, kinetic fluorescence intensity, dose response (AID 624326); format: functional;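 note: rate of fluorescence rise from hydrolysis of a fluorogenic O-methyl fluorescein ester substrate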
[21] = target: T2, Nucleotide-binding oligomerization domain-containing protein 1; experiment: SAR analysis of NF-kappaB dependent luciferase using DAP as an inducer - Set 2. [Related pubchem assays (depositor defined):AID1566, AID1575, AID1578, AID1579, AID1849, AID1852, AID2264]; format: functional
Interleukin-8 [22] = target: T6, Interleukin-8 (Homo sapiens, UniProt P10145); experiment: SAR analysis of Tumor necrosis factor alpha (TNF-alpha) induced IL-8 secretion in MCF-7/NOD1 cells - Set 2. [Related pubchem assays (depositor defined):AID1575, AID2250, AID2260]; format: functional, cell-based
T6 sequence (P10145 whole entry): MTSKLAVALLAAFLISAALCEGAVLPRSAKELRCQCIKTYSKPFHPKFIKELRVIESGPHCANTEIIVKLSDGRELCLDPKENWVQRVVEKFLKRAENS

[23] = target: T7, High affinity choline transporter 1 (Homo sapiens, UniProt Q9GZV3); experiment: human choline transporter blockers, potency – cell-based, 5-point CRC, membrane potential dye, dose response (AID 504840); format: functional
T7 sequence (Q9GZV3 whole entry): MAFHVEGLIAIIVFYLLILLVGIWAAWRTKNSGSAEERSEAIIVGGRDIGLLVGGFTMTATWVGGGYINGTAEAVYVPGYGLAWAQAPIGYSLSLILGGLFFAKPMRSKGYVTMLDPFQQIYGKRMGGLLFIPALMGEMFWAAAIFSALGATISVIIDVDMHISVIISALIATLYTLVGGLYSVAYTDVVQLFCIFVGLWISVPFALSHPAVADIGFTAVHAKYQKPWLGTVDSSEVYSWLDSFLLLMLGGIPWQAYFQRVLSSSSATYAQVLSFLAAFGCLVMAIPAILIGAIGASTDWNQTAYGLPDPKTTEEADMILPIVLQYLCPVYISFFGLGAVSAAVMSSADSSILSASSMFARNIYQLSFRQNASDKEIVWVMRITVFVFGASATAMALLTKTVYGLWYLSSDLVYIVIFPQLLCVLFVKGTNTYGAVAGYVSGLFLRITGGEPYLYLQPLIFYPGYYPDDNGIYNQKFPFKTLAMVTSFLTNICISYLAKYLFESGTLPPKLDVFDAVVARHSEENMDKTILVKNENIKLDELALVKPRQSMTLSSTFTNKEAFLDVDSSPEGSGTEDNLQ

HEK293 [24] = experiment: SAR analysis of compounds that are cytotoxic to HEK293 - Set 3. [Related pubchem assays (depositor defined):AID1575, AID1578, AID1848, AID1849, AID2001, AID2333, AID2334, AID2335, AID2337, AID2469]; format: functional, cell-based; details: Homo sapiens
[25] = target: T3, Nucleotide-binding oligomerization domain-containing protein 2; experiment: inhibition of NOD2 signaling – set 2, SAR follow-up (AID 2475); format: functional
[26] = target: T3, Nucleotide-binding oligomerization domain-containing protein 2; experiment: inhibition of MDP-driven NOD2 NF-kB reporter – cell-based, set 3, SAR follow-up (AID 2799); format: functional
[27] = target: T2, Nucleotide-binding oligomerization domain-containing protein 1; experiment: SAR analysis of compounds that inhibit NOD1 - Set 2. [Related pubchem assays (depositor defined):AID1566, AID1575, AID1578, AID1849, AID1852, AID2333, AID2335, AID2798]; format: functional
Interleukin-8 [28] = target: T6, Interleukin-8; experiment: SAR analysis of GM-Tri-DAP induced IL-8 secretion in MCF-7/NOD1 cells - Set 2. [Related pubchem assays (depositor defined):AID1575, AID1578, AID2333]; format: functional, cell-based
Cytochrome P450 2C9 = Cytochrome P450 2C9 (Homo sapiens, UniProt P11712)
Cytochrome P450 2D6 = Cytochrome P450 2D6 (Homo sapiens, UniProt P10635);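 note: CYP2D6 member of a cytochrome P450 panel assay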
Cytochrome P450 2D6, sequence (P10635 whole entry): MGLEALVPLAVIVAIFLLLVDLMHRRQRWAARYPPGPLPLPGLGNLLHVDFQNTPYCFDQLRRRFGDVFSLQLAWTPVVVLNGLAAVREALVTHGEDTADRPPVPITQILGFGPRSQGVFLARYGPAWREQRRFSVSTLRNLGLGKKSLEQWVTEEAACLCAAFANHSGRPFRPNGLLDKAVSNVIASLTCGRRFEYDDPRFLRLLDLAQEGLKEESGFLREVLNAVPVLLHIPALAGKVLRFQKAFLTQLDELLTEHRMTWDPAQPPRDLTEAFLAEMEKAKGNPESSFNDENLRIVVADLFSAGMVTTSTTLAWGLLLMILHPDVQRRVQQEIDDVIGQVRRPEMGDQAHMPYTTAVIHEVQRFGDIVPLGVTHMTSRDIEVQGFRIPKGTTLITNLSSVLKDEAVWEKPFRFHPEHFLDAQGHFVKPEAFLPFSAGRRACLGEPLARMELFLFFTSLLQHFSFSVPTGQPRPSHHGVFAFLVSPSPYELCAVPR

[29] = target: Voltage-dependent T-type calcium channel subunit alpha-1H (Homo sapiens, UniProt O95180); experiment: inhibition of CACNA1H calcium flux – cell-based, SynthLib3 library, HEK293 Cav3.2, fluorescence (AID 493041); format: functional
[30] = target: G-protein coupled receptor 55 (Homo sapiens, UniProt Q9Y2T6); experiment: blockers of GPR55 signalling, imaged – imaging, image-based, counter-screen for GPR35 antagonist project, SAR follow-up (AID 2397); format: functional

Dual specificity protein phosphatase 3, sequence (P51452 whole entry, the tested form may be a part): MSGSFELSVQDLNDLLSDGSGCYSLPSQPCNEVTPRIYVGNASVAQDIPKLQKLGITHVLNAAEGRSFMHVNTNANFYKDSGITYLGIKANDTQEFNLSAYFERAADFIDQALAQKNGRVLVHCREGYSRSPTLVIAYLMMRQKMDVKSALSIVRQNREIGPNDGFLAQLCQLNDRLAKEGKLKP

Cc1ccc2sc(-c3ccc(NC(=O)c4cc(-n5cnnc5)ccc4Cl)cc3)nc2c1
IC50 [1]: 11.4 µM (active)

CCCn1c(NC(=O)c2cccc(S(=O)(=O)N3CCCC3)c2)nc2ccccc21
AC50 [2]: 11.2 µM (active)
AC50 [3]: 20.4 µM (active)
AC50 [4]: 9.76 µM (active)
IC50 [5]: 4.19 µM (active)
AC50 [6]: 8.66 µM (active)
IC50 [7]: 3.34 µM (active)
EC50 [8]: 0.749 µM (active)
AC50 [9]: 3.94 µM (active)
AC50 [10]: 9.5 µM (active)

CCOC(=O)c1c(O)[n+]([O-])c2ccc(OC)cc2[n+]1[O-]
AC50 [11]: 200 µM (active)

CC1(C)Cc2c(sc(NC(=O)c3ccccc3Cl)c2C(=O)O)CO1
IC50 [12]: > 20 µM (inactive)
IC50 [13]: > 20 µM (inactive)
IC50 (Tumor necrosis factor [14]): > 20 µM (inactive)
IC50 (HEK293 [15]): > 20 µM (inactive)

CCCCn1c(CN2CCN(c3cccc(Cl)c3)CC2)nc2c1c(=O)n(C)c(=O)n2C
IC50 (Fatty acid synthase [16]): 5.07 µM (active)
IC50 (Tumor necrosis factor [17]): 3.35 µM (active)
IC50 [18]: 1.8 µM (active)
IC50 (HEK293 [19]): > 20 µM (inactive)
IC50 (Fatty acid synthase [20]): 5.74 µM (active)
IC50 [21]: 8.7 µM (active)
IC50 (Interleukin-8 [22]): > 25 µM (inactive)
IC50 [23]: 15.1 µM (active)
IC50 (HEK293 [24]): > 20 µM (inactive)
IC50 [25]: 2.21 µM (active)
IC50 [26]: 1.41 µM (active)
IC50 [27]: 2.18 µM (active)
IC50 (Interleukin-8 [28]): > 25 µM (inactive)

CCOC(=O)COc1c(C=O)cc(Br)cc1OC
AC50 (Cytochrome P450 2C9): inconclusive
AC50 (Cytochrome P450 2D6): inconclusive

CC(C)(C)Cc1nnc(NC(=O)COc2ccc(Cl)cc2Cl)o1
EC50 [29]: 0.81 µM (active)

c1ccc(-c2n[n+](-c3ccccc3)c(-c3ccccc3)s2)cc1
IC50 [30]: > 32 µM (inactive)
